Drawing on US20010014737A1, “Vitronectin receptor antagonist” (priority 1997, published 2001), this text covers IC50 for 1 compound.

The target in the test is T1, ανβ3 (the vitronectin receptor) (Homo sapiens, UniProt P05106+P06756).
T1 construct: Human placenta or human platelet ανβ3 (0.1-0.3 mg/mL) in buffer T; from tissue; host or cells: human placenta or human platelets
The test is described as follows: Solid-Phase [3H]-SK&F-107260 Binding to ανβ3 (inhibition of vitronectin binding). Conditions: read-out: inhibits [3H]-SK&F-107260 binding to ανβ3 at a concentration. The procedure: Inhibition of vitronectin binding
Solid-Phase [^3H]-SK&F-107260 Binding to ανβ3: Human placenta or human platelet ανβ3 (0.1-0.3 mg/mL) in buffer T (containing 2 mM CaCl2 and 1% octylglucoside) was diluted with buffer T containing 1 mM CaCl2, 1 mM MnCl2, 1 mM MgCl2 (buffer A) and 0.05% NaN3, and then immediately added to 96-well ELISA plates (Corning, New York, N.Y.) at 0.1 mL per well. 0.1 - 0.2 μg of ανβ3 was added per well. The plates were incubated overnight at 4° C. At the time of the experiment, the wells were washed once with buffer A and were incubated with 0.1 mL of 3.5% bovine serum albumin in the same buffer for 1 hr at room temperature. Following incubation the wells were aspirated completely and washed twice with 0.2 mL buffer A. […]
The plates were incubated for 1 hr at room temperature. […] The receptors were solubilized with 0.1 mL of 1% SDS and the bound f^3H]-SK&F-107260 was determined by liquid scintillation counting with the addition of 3 mL Ready Safe in a Beckman LS Liquid Scintillation Counter, with 40% efficiency. Nonspecific binding of [^3H]-SK&F-107260 was determined in the presence of 2 μM SK&F-107260 and was consistently less than 1% of total radioligand input. […]

T1 sequence (P06756 31-889 limits assumed): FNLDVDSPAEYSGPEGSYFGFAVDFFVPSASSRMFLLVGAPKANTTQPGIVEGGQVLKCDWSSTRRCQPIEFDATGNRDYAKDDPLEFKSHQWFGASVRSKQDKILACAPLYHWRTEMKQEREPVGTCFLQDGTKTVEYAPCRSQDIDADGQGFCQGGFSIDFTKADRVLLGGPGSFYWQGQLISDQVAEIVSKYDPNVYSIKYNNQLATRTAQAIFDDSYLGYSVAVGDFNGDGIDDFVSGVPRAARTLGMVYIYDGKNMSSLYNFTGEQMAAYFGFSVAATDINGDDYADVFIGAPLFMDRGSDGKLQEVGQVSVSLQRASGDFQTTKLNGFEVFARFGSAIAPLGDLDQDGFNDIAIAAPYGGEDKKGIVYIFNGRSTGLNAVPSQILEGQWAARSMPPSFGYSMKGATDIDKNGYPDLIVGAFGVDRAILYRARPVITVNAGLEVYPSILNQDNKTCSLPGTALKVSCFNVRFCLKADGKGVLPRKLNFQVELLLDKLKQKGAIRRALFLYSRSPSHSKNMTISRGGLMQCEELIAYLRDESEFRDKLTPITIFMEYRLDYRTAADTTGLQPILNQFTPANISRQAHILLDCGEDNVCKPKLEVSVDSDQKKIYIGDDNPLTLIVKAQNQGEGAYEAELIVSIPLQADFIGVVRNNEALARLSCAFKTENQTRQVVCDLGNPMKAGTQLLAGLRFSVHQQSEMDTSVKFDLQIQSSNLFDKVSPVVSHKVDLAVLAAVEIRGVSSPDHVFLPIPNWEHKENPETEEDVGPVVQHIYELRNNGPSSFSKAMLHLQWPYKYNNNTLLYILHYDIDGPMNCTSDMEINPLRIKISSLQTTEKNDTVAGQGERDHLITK
T1 sequence (P06756 891-1048 partner limits assumed): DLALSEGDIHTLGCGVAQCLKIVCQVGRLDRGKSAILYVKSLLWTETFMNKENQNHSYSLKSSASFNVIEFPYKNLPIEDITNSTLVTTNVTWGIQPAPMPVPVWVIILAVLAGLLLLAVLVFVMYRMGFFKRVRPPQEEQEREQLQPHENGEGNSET
T1 sequence (P05106 27-788): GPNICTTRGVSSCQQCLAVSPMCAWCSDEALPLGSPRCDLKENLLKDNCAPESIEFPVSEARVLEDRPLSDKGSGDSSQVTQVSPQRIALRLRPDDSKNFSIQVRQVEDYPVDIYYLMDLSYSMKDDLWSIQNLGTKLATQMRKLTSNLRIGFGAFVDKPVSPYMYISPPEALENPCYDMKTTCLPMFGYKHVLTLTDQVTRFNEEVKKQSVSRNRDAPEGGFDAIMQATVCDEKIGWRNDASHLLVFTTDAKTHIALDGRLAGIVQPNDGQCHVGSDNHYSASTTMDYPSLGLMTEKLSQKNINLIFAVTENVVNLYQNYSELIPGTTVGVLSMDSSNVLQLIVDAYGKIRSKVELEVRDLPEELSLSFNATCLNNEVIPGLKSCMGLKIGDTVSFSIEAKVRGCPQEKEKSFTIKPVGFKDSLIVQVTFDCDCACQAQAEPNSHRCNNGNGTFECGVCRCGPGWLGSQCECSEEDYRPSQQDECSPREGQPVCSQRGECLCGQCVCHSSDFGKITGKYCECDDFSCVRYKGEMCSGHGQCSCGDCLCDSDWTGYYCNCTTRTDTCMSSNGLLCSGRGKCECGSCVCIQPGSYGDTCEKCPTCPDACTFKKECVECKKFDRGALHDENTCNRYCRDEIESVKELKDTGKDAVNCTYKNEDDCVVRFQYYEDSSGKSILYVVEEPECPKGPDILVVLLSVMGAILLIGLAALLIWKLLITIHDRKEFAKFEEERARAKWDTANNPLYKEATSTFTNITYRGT

Consider `Cc1ccnc(NCCCOc2ccc3c(c2)CN(Cc2ccc(C(F)(F)F)cc2)C(=O)[C@H](CC(=O)O)C3)c1` [Example 1, (S)-8-[3-(4-methylpyridin-2-ylamino)-1-propyloxy]-3-oxo-2-[4-(trifluoromethyl)benzyl]-2,3,4,5-tetrahydro-1 H-2-benzazepine-4-acetic acid], for which the IC50 was around 3 nM.
